PubChem BioAssay AID256 (DTP/NCI, 2004)
Inconclusive results and toxic doses are left out. The calls were made as follows: active = survival T/C of 150% or more; inactive = T/C below 125% in these data.

Tested on: CD2F1 mice, L1210 leukemia ip, survival T/C
Assay: NCI In Vivo Anticancer Drug Screen. Data for tumor model L1210 Leukemia (intraperitoneal) in CD2F1 (CDF1) mice
Conditions: higher = longer survival
In short: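 Vehicle-treated tumor-bearing mice served as controls (C) for compound-treated mice (T). Reported figure is T divided by C.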

[1] = endpoint: mean survival time, dose: 100.0 mg/kg/injection, schedule: Q01DX001 (ip), vehicle: saline with Tween-80
[2] = endpoint: mean survival time, dose: 200.0 mg/kg/injection, schedule: Q01DX001 (ip), vehicle: saline with Tween-80
[3] = endpoint: mean survival time, dose: 400.0 mg/kg/injection, schedule: Q01DX001 (ip), vehicle: saline with Tween-80
[4] = endpoint: mean survival time, dose: 100.0 mg/kg/injection, schedule: Q01DX009 (ip), vehicle: saline with Tween-80
[5] = endpoint: mean survival time, dose: 100.0 mg/kg/injection, schedule: Q04DX003 (ip), vehicle: saline with Tween-80
[6] = endpoint: mean survival time, dose: 200.0 mg/kg/injection, schedule: Q01DX009 (ip), vehicle: saline with Tween-80
[7] = endpoint: mean survival time, dose: 200.0 mg/kg/injection, schedule: Q04DX003 (ip), vehicle: saline with Tween-80
[8] = endpoint: mean survival time, dose: 400.0 mg/kg/injection, schedule: Q01DX009 (ip), vehicle: saline with Tween-80
[9] = endpoint: mean survival time, dose: 400.0 mg/kg/injection, schedule: Q04DX003 (ip), vehicle: saline with Tween-80

Measured: T/C

O=c1c2ccccc2on1-c1ncnc2nc[nH]c12
inactive: endpoint: mean survival time, dose: 12.5 mg/kg/injection, schedule: Q01DX005 (ip), vehicle: other 105 % of control | endpoint: mean survival time, dose: 25.0 mg/kg/injection, schedule: Q01DX005 (ip), vehicle: other 113 % of control | endpoint: mean survival time, dose: 50.0 mg/kg/injection, schedule: Q01DX005 (ip), vehicle: other 111 % of control | endpoint: mean survival time, dose: 100.0 mg/kg/injection, schedule: Q01DX005 (ip), vehicle: other 95 % of control

O=c1c2cccc3c2-c2c4c(cccc14)c(O)c1cccc(c3=O)c21
inactive: endpoint: mean survival time, dose: 100.0 mg/kg/injection, schedule: Q04DX003 (ip), vehicle: saline sonified 94 % of control | endpoint: mean survival time, dose: 200.0 mg/kg/injection, schedule: Q04DX003 (ip), vehicle: saline sonified 95 % of control | endpoint: mean survival time, dose: 400.0 mg/kg/injection, schedule: Q04DX003 (ip), vehicle: saline sonified 92 % of control

CC(C)(CCC#N)C(O)c1ccccc1 (configuration not stated)
inactive: endpoint: mean survival time, dose: 100.0 mg/kg/injection, schedule: Q04DX002 (ip), vehicle: other 98 % of control | endpoint: mean survival time, dose: 200.0 mg/kg/injection, schedule: Q04DX002 (ip), vehicle: other 102 % of control | endpoint: mean survival time, dose: 400.0 mg/kg/injection, schedule: Q04DX002 (ip), vehicle: other 105 % of control

CCSC(SCC)C(O)C(O)C1COC(C)(C)O1 (configuration not stated)
inactive: [1] 93 % of control | [2] 93 % of control | [3] 101 % of control

CCCCCCCC=C(CCCCCCCC)CCCCCCCC
inactive: [1] 100 % of control | [2] 97 % of control | [3] 100 % of control

CCOc1ccc(NC(=O)OCC(C)C)cc1
inactive: [1] 97 % of control | [2] 101 % of control | [3] 89 % of control

O=C(NC(O)C(Cl)(Cl)Cl)C(Cl)(Cl)Cl (configuration not stated)
inactive: [4] 89 % of control | [5] 104 % of control | [6] 100 % of control | [7] 105 % of control | [8] 107 % of control | [9] 104 % of control

COC(=O)c1cccc(COc2ccc([N+](=O)[O-])cc2Cl)c1
inactive: [4] 98 % of control | [5] 101 % of control | [6] 96 % of control | [7] 100 % of control | [8] 95 % of control | [9] 100 % of control

COc1cc(C2=NCCO2)cc(OC)c1OC
inactive: [5] 103 % of control | [7] 93 % of control | [9] 93 % of control

CCCCCCCCCCCCCCCCSSCCCCCCCCCCCCCCCC
inactive: [5] 88 % of control | [7] 88 % of control | [9] 92 % of control

O=C(Cn1ccc(=O)[nH]c1=O)c1cc2ccccc2[nH]1
inactive: endpoint: mean survival time, dose: 100.0 mg/kg/injection, schedule: Q04DX002 (ip), vehicle: saline with Tween-80 93 % of control | endpoint: mean survival time, dose: 200.0 mg/kg/injection, schedule: Q04DX002 (ip), vehicle: saline with Tween-80 93 % of control | endpoint: mean survival time, dose: 400.0 mg/kg/injection, schedule: Q04DX002 (ip), vehicle: saline with Tween-80 93 % of control

C=Cc1cnc([N+](=O)[O-])n1C
inactive: endpoint: mean survival time, dose: 12.5 mg/kg/injection, schedule: Q01DX009 (ip), vehicle: Klucel (hydroxypropylcellulose) (HPC) 103 % of control | endpoint: mean survival time, dose: 25.0 mg/kg/injection, schedule: Q01DX009 (ip), vehicle: Klucel (hydroxypropylcellulose) (HPC) 101 % of control | endpoint: mean survival time, dose: 50.0 mg/kg/injection, schedule: Q01DX009 (ip), vehicle: Klucel (hydroxypropylcellulose) (HPC) 101 % of control | endpoint: mean survival time, dose: 100.0 mg/kg/injection, schedule: Q01DX009 (ip), vehicle: Klucel (hydroxypropylcellulose) (HPC) 103 % of control | endpoint: mean survival time, dose: 200.0 mg/kg/injection, schedule: Q01DX009 (ip), vehicle: Klucel (hydroxypropylcellulose) (HPC) 101 % of control

COCc1nnc(N)c(C(N)=O)n1
inactive: endpoint: mean survival time, dose: 100.0 mg/kg/injection, schedule: Q01DX001 (ip), vehicle: carboxymethylcellulose (CMC) 100 % of control | endpoint: mean survival time, dose: 200.0 mg/kg/injection, schedule: Q01DX001 (ip), vehicle: carboxymethylcellulose (CMC) 100 % of control | endpoint: mean survival time, dose: 400.0 mg/kg/injection, schedule: Q01DX001 (ip), vehicle: carboxymethylcellulose (CMC) 89 % of control

COC(=O)c1cc(C)c(C)cc1NC1OC(CO)C(O)C1O (configuration not stated)
inactive: endpoint: mean survival time, dose: 100.0 mg/kg/injection, schedule: Q01DX001 (ip), vehicle: saline 91 % of control | endpoint: mean survival time, dose: 200.0 mg/kg/injection, schedule: Q01DX001 (ip), vehicle: saline 89 % of control | endpoint: mean survival time, dose: 400.0 mg/kg/injection, schedule: Q01DX001 (ip), vehicle: saline 86 % of control

C[S+](C)CC(=O)O
inactive: endpoint: mean survival time, dose: 100.0 mg/kg/injection, schedule: Q01DX009 (ip), vehicle: saline 97 % of control | endpoint: mean survival time, dose: 200.0 mg/kg/injection, schedule: Q01DX009 (ip), vehicle: saline 101 % of control | endpoint: mean survival time, dose: 400.0 mg/kg/injection, schedule: Q01DX009 (ip), vehicle: saline 92 % of control

O=C(CC(=O)C(F)(F)F)c1cccs1.O=C(CC(=O)C(F)(F)F)c1cccs1.O=C(CC(=O)C(F)(F)F)c1cccs1.[Sm]
inactive: endpoint: median survival time, dose: 50.0 mg/kg/injection, schedule: Q04DX002 (ip), vehicle: saline with Tween-80 100 % of control | endpoint: median survival time, dose: 100.0 mg/kg/injection, schedule: Q04DX002 (ip), vehicle: saline with Tween-80 88 % of control | endpoint: median survival time, dose: 200.0 mg/kg/injection, schedule: Q04DX002 (ip), vehicle: saline with Tween-80 100 % of control
